Our source for the IC50 values is patent US8153663B2, “3-amino-indazole or 3-amino-4,5,6,7-tetrahydro-indazole derivatives” (Hoffmann-La Roche Inc., priority 2008, dated 2012).

SMILES strings stand for the structures.

The target of the experiment is T1, FXR ligand binding domain (GST-FXR LBD fusion protein, human FXR aa 193-473) (Homo sapiens, UniProt Q96RI1).
T1 construct: made in house; host or cells: E. coli BL21(pLysS)
T1 sequence (Q96RI1 193-472 isoform Q96RI1-2 limits assumed): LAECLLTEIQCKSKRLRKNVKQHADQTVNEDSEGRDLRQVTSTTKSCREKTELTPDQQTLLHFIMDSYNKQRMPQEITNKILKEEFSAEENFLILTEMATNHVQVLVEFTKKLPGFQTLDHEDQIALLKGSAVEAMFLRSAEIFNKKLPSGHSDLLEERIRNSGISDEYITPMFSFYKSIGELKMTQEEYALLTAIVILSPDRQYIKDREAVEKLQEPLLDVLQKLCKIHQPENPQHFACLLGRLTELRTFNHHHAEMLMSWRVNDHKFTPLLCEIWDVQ
The experiment is described as follows: Radioligand binding assay (radioligand displacement, scintillation proximity). As to conditions: 40 nM GST-FXR LBD on SPA beads, radioligand 2,N-dicyclohexyl-2-[2-(2,4 dimethoxy-phenyl)-benzoimidazol-1-yl]-acetamide, RT 30 minutes. The method, then:
The following tests were carried out in order to determine the activity of the compounds of formula I. Background information on the binding assay can be found in: Nichols J S et al. “Development of a scintillation proximity assay for peroxisome proliferator-activated receptor gamma ligand binding domain”, (1998) Anal. Biochem. 257: 112-119.
Bacterial and mammalian expression vectors were constructed to produce glutathione-s-transferase (GST) and Gal4 DNA binding domain (GAL) proteins fused to the ligand binding domain (LBD) of human FXR (aa 193-473). To accomplish this, the portions of the sequences encoding the FXR LBD were amplified by polymerase chain reaction (PCR) from a full-length clone by PCR and then subcloned into the plasmid vectors. The final clone was verified by DNA sequence analysis.
The induction, expression, and subsequent purification of GST-LBD fusion protein was performed in E. coli strain BL21(pLysS) cells by standard methods (Current Protocols in Molecular Biology, Wiley Press, ed. Ausubel et al).
Radioligand Binding Assay
Binding of test substances to the FXR ligand binding domain was assessed in a radioligand displacement assay. The assay was performed in a buffer consisting of 50 mM Hepes, pH 7.4, 10 mM NaCl, 5 mM MgCl2. For each reaction well in a 96-well plate, 40 nM of GST-FXR LBD fusion protein was bound to 10 μg glutathione ytrium silicate SPA beads (Pharmacia Amersham) in a final volume of 50 μl by shaking. A radioligand (e.g. 40 nM) of 2,N-dicyclohexyl-2-[2-(2,4 dimethoxy-phenyl)-benzoimidazol-1-yl]-acetamide) was added, and the reaction incubated at RT for 30 minutes in the presence of test compounds followed by scintillation proximity counting. All binding assays were performed in 96-well plates and the amount of bound ligand was measured on a Packard TopCount using OptiPlates (Packard). Dose response curves were performed within a range of concentration from 6×10^−9 M to 2.5×10^−5 M.
In general terms: Loss of bound radioactivity is the signal in a displacement assay; it reports binding, not function.
On to `O=C(OC1CCCCC1)N(c1c2ccccc2nn1-c1ccc(Cl)cc1)C1CCCCC1` [Example 37, [2-(4-Chloro-phenyl)-2H-indazol-3-yl]-cyclohexyl-carbamic acid cyclohexyl ester], for which the IC50 – broadly, the concentration at which inhibition is half-maximal – worked out at 60 nM.
For `O=C(NC1CCCCC1)N(c1c2ccccc2nn1-c1ccc(Cl)cc1)C1CCCCC1` [Example 11, 1-[2-(4-Chloro-phenyl)-2H-indazol-3-yl]-1,3-dicyclohexyl-urea] the value was 20 nM.
For `COCCN(C(=O)NC1CCCCC1)c1c2ccccc2nn1-c1ccc(Cl)cc1` [Example 17, 1-[2-(4-Chloro-phenyl)-2H-indazol-3-yl]-3-cyclohexyl-1-(2-methoxy-ethyl)-urea] the value was 2330 nM; for `O=C(O)c1ccc(NC(=O)N(c2c3cc(F)c(F)cc3nn2-c2ccc(Cl)cc2)C2CCCCC2)c(Cl)c1` [Example 16, 3-Chloro-4-{3-[2-(4-chloro-phenyl)-5,6-difluoro-2H-indazol-3-yl]-3-cyclohexyl-ureido}-benzoic acid], 400 nM.
The molecule `O=C(O)c1ccc(NC(=O)N(c2c3ccccc3nn2-c2ccc(Cl)cc2)C2CCC2)c(Cl)c1` [Example 31, 3-Chloro-4-{3-[2-(4-chloro-phenyl)-2H-indazol-3-yl]-3-cyclobutyl-ureido}-benzoic acid] registered an IC50 of 4310 nM.
For `O=C(NC1CCCCC1)N(c1cccc(Cl)c1)c1c2ccccc2nn1-c1ccc(Cl)cc1` [Example 19, 1-(3-Chloro-phenyl)-1-[2-(4-chloro-phenyl)-2H-indazol-3-yl]-3-cyclohexyl-urea], the IC50 is 20 nM.
For `O=C(NC1CCCCC1)N(c1c2ccccc2nn1-c1ccc(Cl)cc1)C1CCOCC1` [Example 10, 1-[2-(4-Chloro-phenyl)-2H-indazol-3-yl]-3-cyclohexyl-1-(tetrahydro-pyran-4-yl)-urea] the value was 660 nM.
In turn, `O=C(NC1CCCCC1)N(c1cccc(Cl)c1)c1c2ccc(F)cc2nn1-c1ccc(Cl)cc1` [Example 44, 1-(3-Chloro-phenyl)-1-[2-(4-chloro-phenyl)-6-fluoro-2H-indazol-3-yl]-3-cyclohexyl-urea] had an IC50 of 100 nM.
`O=C(N[C@H]1CC[C@H](O)CC1)N(c1cccc(Cl)c1)c1c2ccccc2nn1-c1ccc(Cl)cc1` [Example 41, trans-1-(3-Chloro-phenyl)-1-[2-(4-chloro-phenyl)-2H-indazol-3-yl]-3-(4-hydroxy-cyclohexyl)-urea] showed an IC50 of 300 nM.
Next, `CCOc1cccc(N(C(=O)NC2CCCCC2)c2c3ccccc3nn2-c2ccc(Cl)cc2)c1` [Example 25, 1-[2-(4-Chloro-phenyl)-2H-indazol-3-yl]-3-cyclohexyl-1-(3-ethoxy-phenyl)-urea]: 790 nM; `O=C(NC1CCCCC1)N(c1c2ccc(F)cc2nn1-c1ccc(Cl)cc1)C1CCCCC1` [Example 40, 1-[2-(4-Chloro-phenyl)-6-fluoro-2H-indazol-3-yl]-1,3-dicyclohexyl-urea]: 20 nM; `CC(C)(C(=O)O)c1ccc(NC(=O)N(c2c3ccccc3nn2-c2ccc(Cl)cc2)C2CCCCC2)c(F)c1` [Example 32, 2-(4-{3-[2-(4-Chloro-phenyl)-2H-indazol-3-yl]-3-cyclohexyl-ureido}-3-fluoro-phenyl)-2-methyl-propionic acid]: 3350 nM.
For `O=C(Nc1ccccc1F)N(c1c2ccccc2nn1-c1ccccc1)C1CCCCC1` [Example 3, 1-Cyclohexyl-3-(2-fluoro-phenyl)-1-(2-phenyl-2H-indazol-3-yl)-urea] the value was 830 nM; for `O=C(O)Cc1ccc(NC(=O)N(c2c3ccccc3nn2-c2ccc(Cl)cc2)C2CCCCC2)c(Cl)c1` [Example 21, (3-Chloro-4-{3-[2-(4-chloro-phenyl)-2H-indazol-3-yl]-3-cyclohexyl-ureido}-phenyl)-acetic acid], 720 nM; for `O=C(NC1CCCC1)N(c1c2ccccc2nn1-c1ccc(Cl)cc1)C1CCCC1` [Example 38, 1-[2-(4-Chloro-phenyl)-2H-indazol-3-yl]-1,3-dicyclopentyl-urea], 240 nM.
Take `O=C(NC1CCCCC1)N(c1cccc(Cl)c1)c1c2ccc(F)cc2nn1-c1cccc(Cl)c1` [Example 35, 1-(3-Chloro-phenyl)-1-[2-(3-chloro-phenyl)-6-fluoro-2H-indazol-3-yl]-3-cyclohexyl-urea]: the IC50 turned out to be 20 nM.
In turn, `CCCCN(C(=O)Nc1ccc(C(=O)O)cc1Cl)c1c2ccccc2nn1-c1ccc(Cl)cc1` [Example 12, 4-{3-Butyl-3-[2-(4-chloro-phenyl)-2H-indazol-3-yl]-ureido}-3-chloro-benzoic acid] gave an IC50 of 790 nM.
`O=C(NC1CCCCC1)N(c1ccccc1)c1c2ccccc2nn1-c1ccc(Cl)cc1` [Example 15, 1-[2-(4-Chloro-phenyl)-2H-indazol-3-yl]-3-cyclohexyl-1-phenyl-urea] gave an IC50 of 460 nM.
For `O=C(O)CCc1ccc(NC(=O)N(c2c3ccccc3nn2-c2ccc(Cl)cc2)C2CCCCC2)c(F)c1` [Example 26, 3-(4-{3-[2-(4-Chloro-phenyl)-2H-indazol-3-yl]-3-cyclohexyl-ureido}-3-fluoro-phenyl)-propionic acid] the value was 340 nM.
`O=C(O)c1ccc(NC(=O)N(Cc2ccccc2)c2c3ccccc3nn2-c2ccc(Cl)cc2)c(Cl)c1` [Example 9, 4-{3-Benzyl-3-[2-(4-chloro-phenyl)-2H-indazol-3-yl]-ureido}-3-chloro-benzoic acid] had an IC50 of 1080 nM.
As for `CCCCN(C(=O)NC1CCCCC1)c1c2ccccc2nn1-c1ccc(Cl)cc1` [Example 4, 1-Butyl-1-[2-(4-chloro-phenyl)-2H-indazol-3-yl]-3-cyclohexyl-urea], the IC50 was found to be 180 nM.
The molecule `O=C(NC1CCCCC1)N(c1ccc(F)c(Cl)c1)c1c2ccccc2nn1-c1ccc(Cl)cc1` [Example 28, 1-(3-Chloro-4-fluoro-phenyl)-1-[2-(4-chloro-phenyl)-2H-indazol-3-yl]-3-cyclohexyl-urea] had an IC50 of 70 nM.
`O=C(NC1CCCCC1)N(c1c2ccccc2nn1-c1ccccc1)C1CCCCC1` [Example 1, 1,3-Dicyclohexyl-1-(2-phenyl-2H-indazol-3-yl)-urea] registered a concentration for half-maximal inhibition (IC50) of 40 nM.
In turn, `O=C(NC1CCCCC1)N(c1cccc(Cl)c1)c1c2cc(F)c(F)cc2nn1-c1cccc(Cl)c1` [Example 43, 1-(3-Chloro-phenyl)-1-[2-(3-chloro-phenyl)-5,6-difluoro-2H-indazol-3-yl]-3-cyclohexyl-urea] registered a 50% inhibitory concentration (IC50) of 80 nM.
